“And” between values parts separate entries of the source, which are not always exact repeats. Equal values may be shown once. Read-outs that look alike come from different tables or passages of the source.
Assays:
Experiment in all cases: SelectScreen kinase assay
CSK = CSK (Homo sapiens, UniProt P41240); conditions: for Inhibition at 1 µM (%): CSK, ZLYTE, ATP Km app
Procedure: (§1) Selectivity profiling assays were performed by the Invitrogen SelectScreen™ Services. […] The concentration of ATP was selected to be equal to the KM, unless indicated otherwise.

CSNK1E (CK1 epsilon) = CSNK1E (CK1 epsilon) (Homo sapiens, UniProt P49674); conditions: for Inhibition at 1 µM (%): CSNK1E (CK1 epsilon), ZLYTE, ATP Km app
Chain of CSNK1E (CK1 epsilon) (P49674 whole entry): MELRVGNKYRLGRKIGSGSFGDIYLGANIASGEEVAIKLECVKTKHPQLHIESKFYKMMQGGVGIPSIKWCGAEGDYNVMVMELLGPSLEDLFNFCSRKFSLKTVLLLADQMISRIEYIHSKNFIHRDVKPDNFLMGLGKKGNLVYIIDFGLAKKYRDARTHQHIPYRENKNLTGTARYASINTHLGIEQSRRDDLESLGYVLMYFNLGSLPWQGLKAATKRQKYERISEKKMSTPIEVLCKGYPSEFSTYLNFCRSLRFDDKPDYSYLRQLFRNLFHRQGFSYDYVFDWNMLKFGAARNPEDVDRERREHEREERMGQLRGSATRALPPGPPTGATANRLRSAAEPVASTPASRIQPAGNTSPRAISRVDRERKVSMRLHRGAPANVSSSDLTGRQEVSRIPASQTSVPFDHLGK
Procedure: as §1

CDK17/cyclin Y = CDK17/cyclin Y (Homo sapiens, UniProt Q00537)
Procedure: as §1

PTK2B (FAK2) = PTK2B (FAK2) (Homo sapiens, UniProt Q14289)
Chain of PTK2B (FAK2) (Q14289 whole entry): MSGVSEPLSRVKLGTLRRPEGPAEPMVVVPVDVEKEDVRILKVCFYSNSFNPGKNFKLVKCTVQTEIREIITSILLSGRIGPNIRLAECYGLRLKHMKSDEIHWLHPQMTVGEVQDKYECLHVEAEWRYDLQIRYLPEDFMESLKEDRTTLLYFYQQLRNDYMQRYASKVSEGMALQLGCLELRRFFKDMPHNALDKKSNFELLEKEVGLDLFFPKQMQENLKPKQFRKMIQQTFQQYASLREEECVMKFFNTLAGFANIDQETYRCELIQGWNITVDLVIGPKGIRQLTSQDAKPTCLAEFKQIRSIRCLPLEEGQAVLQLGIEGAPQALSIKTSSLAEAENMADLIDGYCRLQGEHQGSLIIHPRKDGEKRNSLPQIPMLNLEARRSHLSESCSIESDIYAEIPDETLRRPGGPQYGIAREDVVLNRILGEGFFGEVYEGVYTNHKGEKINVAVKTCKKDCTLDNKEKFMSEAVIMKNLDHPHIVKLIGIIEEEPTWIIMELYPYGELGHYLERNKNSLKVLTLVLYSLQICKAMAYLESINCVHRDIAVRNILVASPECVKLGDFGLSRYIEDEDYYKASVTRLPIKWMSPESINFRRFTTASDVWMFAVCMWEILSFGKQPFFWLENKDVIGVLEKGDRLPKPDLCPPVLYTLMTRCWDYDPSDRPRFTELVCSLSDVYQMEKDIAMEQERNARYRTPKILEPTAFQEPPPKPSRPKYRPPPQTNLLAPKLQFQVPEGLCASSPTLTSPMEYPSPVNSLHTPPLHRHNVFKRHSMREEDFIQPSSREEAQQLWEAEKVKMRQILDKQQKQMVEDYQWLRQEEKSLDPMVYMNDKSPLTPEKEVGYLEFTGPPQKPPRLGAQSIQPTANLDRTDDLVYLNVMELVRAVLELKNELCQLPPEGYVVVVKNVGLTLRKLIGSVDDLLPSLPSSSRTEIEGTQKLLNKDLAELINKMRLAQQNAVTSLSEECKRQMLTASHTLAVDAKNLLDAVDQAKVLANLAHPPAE
Procedure: as §1

TNIK = TNIK (Homo sapiens, UniProt Q9UKE5)
Procedure: as §1

PDGFRA (PDGFR alpha) = PDGFRA (PDGFR alpha) (Homo sapiens, UniProt P16234)
Chain of PDGFRA (PDGFR alpha) (P16234 24-1089, species assumed): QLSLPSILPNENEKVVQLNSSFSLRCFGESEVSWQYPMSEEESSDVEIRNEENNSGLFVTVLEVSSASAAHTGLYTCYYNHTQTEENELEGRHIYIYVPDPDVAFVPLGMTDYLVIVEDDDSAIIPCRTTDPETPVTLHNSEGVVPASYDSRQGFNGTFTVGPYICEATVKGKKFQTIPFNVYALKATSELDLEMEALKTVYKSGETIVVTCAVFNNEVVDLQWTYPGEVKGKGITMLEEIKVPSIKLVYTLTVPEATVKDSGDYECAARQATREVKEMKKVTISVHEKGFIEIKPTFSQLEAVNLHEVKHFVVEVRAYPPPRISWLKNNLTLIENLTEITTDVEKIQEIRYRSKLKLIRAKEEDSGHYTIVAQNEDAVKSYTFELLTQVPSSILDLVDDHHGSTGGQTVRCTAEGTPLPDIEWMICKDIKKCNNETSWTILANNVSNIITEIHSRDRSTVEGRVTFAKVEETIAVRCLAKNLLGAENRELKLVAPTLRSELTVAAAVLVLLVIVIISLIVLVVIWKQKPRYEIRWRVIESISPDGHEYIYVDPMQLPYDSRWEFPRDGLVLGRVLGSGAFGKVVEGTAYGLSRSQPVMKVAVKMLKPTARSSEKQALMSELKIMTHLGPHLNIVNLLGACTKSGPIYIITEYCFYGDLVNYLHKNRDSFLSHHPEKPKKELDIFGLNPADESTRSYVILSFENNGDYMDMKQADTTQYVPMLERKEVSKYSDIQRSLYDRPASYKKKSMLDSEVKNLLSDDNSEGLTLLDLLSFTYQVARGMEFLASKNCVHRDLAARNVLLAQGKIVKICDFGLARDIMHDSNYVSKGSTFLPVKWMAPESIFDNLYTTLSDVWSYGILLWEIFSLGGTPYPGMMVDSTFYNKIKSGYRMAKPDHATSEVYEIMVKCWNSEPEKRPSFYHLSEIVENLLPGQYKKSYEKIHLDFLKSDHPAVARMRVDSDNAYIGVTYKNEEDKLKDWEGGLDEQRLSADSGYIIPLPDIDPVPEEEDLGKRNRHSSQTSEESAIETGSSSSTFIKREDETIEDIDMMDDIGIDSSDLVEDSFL
Procedure: as §1

DYRK2 = target: T1, DYRK2 (Homo sapiens, UniProt Q92630); conditions: for Inhibition at 1 µM (%): DYRK2, LanthaScreen Binding
T1 sequence (Q92630 1-601): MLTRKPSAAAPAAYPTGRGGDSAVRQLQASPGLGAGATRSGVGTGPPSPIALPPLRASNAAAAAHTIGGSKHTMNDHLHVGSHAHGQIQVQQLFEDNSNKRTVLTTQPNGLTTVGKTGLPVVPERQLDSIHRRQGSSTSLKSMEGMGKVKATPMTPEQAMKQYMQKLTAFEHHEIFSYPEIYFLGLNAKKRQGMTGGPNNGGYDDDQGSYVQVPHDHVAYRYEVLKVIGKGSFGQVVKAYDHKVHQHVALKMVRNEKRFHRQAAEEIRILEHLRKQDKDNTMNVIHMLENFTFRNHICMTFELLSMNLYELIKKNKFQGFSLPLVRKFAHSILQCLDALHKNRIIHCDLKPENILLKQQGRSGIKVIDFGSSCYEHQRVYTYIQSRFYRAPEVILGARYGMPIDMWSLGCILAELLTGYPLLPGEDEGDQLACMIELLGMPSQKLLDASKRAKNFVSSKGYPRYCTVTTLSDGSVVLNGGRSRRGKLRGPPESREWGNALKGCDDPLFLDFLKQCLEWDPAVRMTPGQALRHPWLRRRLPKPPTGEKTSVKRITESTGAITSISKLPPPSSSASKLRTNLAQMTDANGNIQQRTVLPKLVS
Procedure: as §1

MINK1 = MINK1 (Homo sapiens, UniProt Q8N4C8)
Chain of MINK1 (Q8N4C8 whole entry): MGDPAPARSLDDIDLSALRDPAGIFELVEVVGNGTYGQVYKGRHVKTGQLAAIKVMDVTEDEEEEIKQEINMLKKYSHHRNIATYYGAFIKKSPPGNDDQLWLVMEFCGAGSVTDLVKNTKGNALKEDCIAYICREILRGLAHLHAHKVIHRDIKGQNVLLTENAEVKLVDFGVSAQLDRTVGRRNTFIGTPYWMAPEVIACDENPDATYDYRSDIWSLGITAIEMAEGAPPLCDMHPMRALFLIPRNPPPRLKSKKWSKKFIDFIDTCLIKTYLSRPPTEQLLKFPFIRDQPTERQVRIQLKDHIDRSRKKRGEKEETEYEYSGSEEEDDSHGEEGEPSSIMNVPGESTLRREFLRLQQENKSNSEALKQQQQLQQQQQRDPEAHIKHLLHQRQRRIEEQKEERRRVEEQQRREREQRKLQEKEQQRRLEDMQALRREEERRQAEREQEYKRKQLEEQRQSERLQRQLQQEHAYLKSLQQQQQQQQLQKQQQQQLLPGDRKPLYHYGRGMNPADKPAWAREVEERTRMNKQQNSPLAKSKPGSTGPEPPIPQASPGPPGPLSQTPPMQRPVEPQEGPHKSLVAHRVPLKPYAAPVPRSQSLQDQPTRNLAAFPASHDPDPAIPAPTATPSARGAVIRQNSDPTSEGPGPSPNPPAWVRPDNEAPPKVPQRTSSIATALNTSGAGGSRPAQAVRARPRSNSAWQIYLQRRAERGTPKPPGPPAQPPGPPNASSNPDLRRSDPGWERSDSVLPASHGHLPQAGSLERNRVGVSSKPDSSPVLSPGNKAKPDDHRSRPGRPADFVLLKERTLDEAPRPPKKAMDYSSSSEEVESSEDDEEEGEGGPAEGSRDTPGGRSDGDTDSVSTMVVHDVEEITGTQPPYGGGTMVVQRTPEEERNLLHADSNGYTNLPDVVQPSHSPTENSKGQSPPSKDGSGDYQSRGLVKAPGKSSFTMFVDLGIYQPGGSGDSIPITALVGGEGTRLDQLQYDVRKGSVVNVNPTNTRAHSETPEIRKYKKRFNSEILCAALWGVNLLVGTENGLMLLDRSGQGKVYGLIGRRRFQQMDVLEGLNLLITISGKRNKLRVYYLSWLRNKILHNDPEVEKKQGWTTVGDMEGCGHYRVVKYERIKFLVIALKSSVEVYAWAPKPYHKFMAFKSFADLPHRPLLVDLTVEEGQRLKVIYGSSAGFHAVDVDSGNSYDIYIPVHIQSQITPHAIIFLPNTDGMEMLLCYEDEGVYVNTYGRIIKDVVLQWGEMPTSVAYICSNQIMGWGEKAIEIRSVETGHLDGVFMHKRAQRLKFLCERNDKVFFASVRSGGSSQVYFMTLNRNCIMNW
Procedure: as §1

ITK = target: T2, ITK (Homo sapiens, UniProt Q08881); conditions: for Inhibition at 1 µM (%): ITK, ZLYTE, ATP Km app
T2 sequence (Q08881 1-620): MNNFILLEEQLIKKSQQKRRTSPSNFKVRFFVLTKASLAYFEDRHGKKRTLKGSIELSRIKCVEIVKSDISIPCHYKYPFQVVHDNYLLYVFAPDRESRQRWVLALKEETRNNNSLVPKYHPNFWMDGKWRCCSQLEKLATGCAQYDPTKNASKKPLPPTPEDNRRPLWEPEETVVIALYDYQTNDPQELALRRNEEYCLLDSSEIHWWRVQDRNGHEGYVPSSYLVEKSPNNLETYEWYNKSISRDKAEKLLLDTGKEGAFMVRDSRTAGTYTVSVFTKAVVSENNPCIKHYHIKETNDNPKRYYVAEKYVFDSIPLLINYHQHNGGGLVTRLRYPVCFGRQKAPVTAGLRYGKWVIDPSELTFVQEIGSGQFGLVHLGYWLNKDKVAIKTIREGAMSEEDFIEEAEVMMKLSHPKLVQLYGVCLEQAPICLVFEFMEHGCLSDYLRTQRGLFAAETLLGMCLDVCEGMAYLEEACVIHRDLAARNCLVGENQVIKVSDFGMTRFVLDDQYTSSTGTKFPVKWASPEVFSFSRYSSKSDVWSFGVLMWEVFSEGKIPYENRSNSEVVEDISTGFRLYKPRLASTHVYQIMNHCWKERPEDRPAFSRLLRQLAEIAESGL
Procedure: as §1

CAMKK2 (CaMKK beta) = CAMKK2 (CaMKK beta) (Homo sapiens, UniProt Q96RR4)
Procedure: as §1

SLK = SLK (Homo sapiens, UniProt Q9H2G2)
Procedure: as §1

MAP2K1 (MEK1) = MAP2K1 (MEK1) (Homo sapiens, UniProt Q02750)
Procedure: as §1

FRK (PTK5) = FRK (PTK5) (Homo sapiens, UniProt P42685); conditions: for Inhibition at 1 µM (%): FRK (PTK5), ZLYTE, ATP Km app
Chain of FRK (PTK5) (P42685 whole entry): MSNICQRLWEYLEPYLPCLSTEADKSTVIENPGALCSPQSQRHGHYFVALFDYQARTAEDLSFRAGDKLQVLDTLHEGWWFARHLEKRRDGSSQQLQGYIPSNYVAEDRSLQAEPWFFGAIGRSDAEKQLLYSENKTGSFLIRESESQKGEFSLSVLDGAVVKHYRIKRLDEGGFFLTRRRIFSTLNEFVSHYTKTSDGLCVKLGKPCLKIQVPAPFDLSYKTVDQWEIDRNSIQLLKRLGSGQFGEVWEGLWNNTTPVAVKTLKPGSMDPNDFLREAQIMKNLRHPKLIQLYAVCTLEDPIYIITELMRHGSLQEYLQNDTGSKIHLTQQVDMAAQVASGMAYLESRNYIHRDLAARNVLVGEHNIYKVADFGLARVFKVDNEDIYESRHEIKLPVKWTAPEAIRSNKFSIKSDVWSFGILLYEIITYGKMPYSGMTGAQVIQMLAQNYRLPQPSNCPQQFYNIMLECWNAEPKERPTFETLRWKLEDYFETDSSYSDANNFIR
Procedure: as §1

CDC42 BPA (MRCKA) = CDC42 BPA (MRCKA) (Homo sapiens, UniProt Q5VT25)
Procedure: as §1

ACVR1 (ALK2) = ACVR1 (ALK2) (Homo sapiens, UniProt Q04771)
Procedure: as §1

[1] = 1 h, 1 μM WEL028, 1 h preincubation
[2] = 1 µM, LanthaScreen Binding, listed as WEL028, 1 µM
[3] = IC50 on that kinase divided by IC50 on FES^S700C

Chain of CSK (P41240 whole entry): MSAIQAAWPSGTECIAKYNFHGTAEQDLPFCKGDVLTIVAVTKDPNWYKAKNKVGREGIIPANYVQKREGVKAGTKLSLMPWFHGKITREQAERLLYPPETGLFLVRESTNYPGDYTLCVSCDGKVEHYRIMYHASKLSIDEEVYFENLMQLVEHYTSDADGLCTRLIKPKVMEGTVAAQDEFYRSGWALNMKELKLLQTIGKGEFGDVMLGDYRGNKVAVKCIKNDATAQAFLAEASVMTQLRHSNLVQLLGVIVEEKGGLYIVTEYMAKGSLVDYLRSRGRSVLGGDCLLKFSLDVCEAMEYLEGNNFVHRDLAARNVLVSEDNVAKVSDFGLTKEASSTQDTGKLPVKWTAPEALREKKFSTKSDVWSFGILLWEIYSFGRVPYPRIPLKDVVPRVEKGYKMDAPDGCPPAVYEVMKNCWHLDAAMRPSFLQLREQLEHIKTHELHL

In the case of `C#CCOc1ccc(Nc2ncc(Cl)c(Nc3ccccc3NC(=O)C=C)n2)c(OC)c1` [Compound 6], the “Inhibition (%)” value (CSK; 1 μM WEL028, 1 h preincubation) is reported as 5%, the “Inhibition at 1 µM (%)” value (CSK) is reported as 2% and the “Inhibition at 1 µM (%)” value (CSK; listed as WEL028, 1 µM) is reported as 8%. For the same molecule, the inhibition at 1 µM (CSNK1E (CK1 epsilon); [1]) was 9%, the “Inhibition at 1 µM (%)” value (CSNK1E (CK1 epsilon)) was 14% and the “Inhibition at 1 µM (%)” value (CSNK1E (CK1 epsilon); listed as WEL028, 1 µM) was 4%. The inhibition at 1 µM (CDK17/cyclin Y; [1]) was 4%, the inhibition at 1 µM (CDK17/cyclin Y; read-out: Inhibition at 1 µM (%), CDK17/cyclin Y, 1 µM, ZLYTE, ATP Km app) was 5% and the “Inhibition at 1 µM (%)” value (PTK2B (FAK2); 1 µM, ZLYTE, ATP Km app, listed as WEL028, 1 µM) was 37%. For the same molecule, the inhibition at 1 µM (PTK2B (FAK2); [1]) was 34%, the inhibition at 1 µM (PTK2B (FAK2); read-out: Inhibition at 1 µM (%), 1 µM, ZLYTE, ATP Km app) was 32% and the “Inhibition at 1 µM (%)” value (TNIK; [2]) was 4%. For the same molecule, the inhibition at 1 µM (TNIK; [1]) was 5%, the inhibition at 1 µM (TNIK; read-out: Inhibition at 1 µM (%), 1 µM, LanthaScreen Binding) was 6% and the IC50 (PDGFRA (PDGFR alpha)) was 794 nM. The inhibition at 1 µM (PDGFRA (PDGFR alpha); [1]) was 63%, the inhibition at 10 µM (PDGFRA (PDGFR alpha); 1 h, log[inhibitor] (M) -5.00, ZLYTE, ATP Km app) was 90% and the inhibition at 3.31 µM (PDGFRA (PDGFR alpha); 1 h, log[inhibitor] (M) -5.48, ZLYTE, ATP Km app) was 93%. The inhibition at 1.12 µM (PDGFRA (PDGFR alpha); 1 h, log[inhibitor] (M) -5.95, ZLYTE, ATP Km app) was 61%, the inhibition at 0.372 µM (PDGFRA (PDGFR alpha); 1 h, log[inhibitor] (M) -6.43, ZLYTE, ATP Km app) was 22% and the inhibition at 0.123 µM (PDGFRA (PDGFR alpha); 1 h, log[inhibitor] (M) -6.91, ZLYTE, ATP Km app) was 7%. For the same molecule, the Apparent fold selectivity (PDGFRA (PDGFR alpha); [3]) was 184 fold, the “Inhibition at 1 µM (%)” value (PDGFRA (PDGFR alpha); PDGFRA (PDGFR alpha), 1 µM, ZLYTE, ATP Km app, listed as WEL028, 1 µM) was 58% and the inhibition at 1 µM (PDGFRA (PDGFR alpha); read-out: Inhibition at 1 µM (%), PDGFRA (PDGFR alpha), 1 µM, ZLYTE, ATP Km app) was 68%. The inhibition at 1 µM (DYRK2; [1]) was 7%, the “Inhibition at 1 µM (%)” value (DYRK2) was 11% and the “Inhibition at 1 µM (%)” value (DYRK2; listed as WEL028, 1 µM) was 4%. The inhibition at 1 µM (MINK1; [1]) was 20%, the “Inhibition at 1 µM (%)” value (MINK1; MINK1, 1 µM, ZLYTE, ATP Km app, listed as WEL028, 1 µM) was 21% and the inhibition at 1 µM (MINK1; read-out: Inhibition at 1 µM (%), MINK1, 1 µM, ZLYTE, ATP Km app) was 19%. The “Inhibition (%)” value (ITK; 1 μM WEL028, 1 h preincubation) was -7%, the “Inhibition at 1 µM (%)” value (ITK) was -3% and the “Inhibition at 1 µM (%)” value (ITK; listed as WEL028, 1 µM) was -10%. The inhibition at 1 µM (CAMKK2 (CaMKK beta); 1 h) was 23%, the inhibition at 1 µM (CAMKK2 (CaMKK beta); read-out: Inhibition at 1 µM (%)) was 23% and the “Inhibition at 1 µM (%)” value (SLK; [2]) was 1% and 7%. It also gave an inhibition at 1 µM (SLK; [1]) of 4%, an IC50 (MAP2K1 (MEK1)) of 251 nM and an inhibition at 10 µM (MAP2K1 (MEK1); 1 h, log[inhibitor] (M) -5.00, ZLYTE, ATP 100) of 110%. The inhibition at 3.311 µM (MAP2K1 (MEK1); 1 h, log[inhibitor] (M) -5.48, ZLYTE, ATP 100) was 106%, the inhibition at 1.122 µM (MAP2K1 (MEK1); 1 h, log[inhibitor] (M) -5.95, ZLYTE, ATP 100) was 106% and the inhibition at 0.3715 µM (MAP2K1 (MEK1); 1 h, log[inhibitor] (M) -6.43, ZLYTE, ATP 100) was 78%. The inhibition at 0.123 µM (MAP2K1 (MEK1); 1 h, log[inhibitor] (M) -6.91, ZLYTE, ATP 100) was 44%, the inhibition at 0.04074 µM (MAP2K1 (MEK1); 1 h, log[inhibitor] (M) -7.39, ZLYTE, ATP 100) was 29% and the inhibition at 0.0138 µM (MAP2K1 (MEK1); 1 h, log[inhibitor] (M) -7.86, ZLYTE, ATP 100) was 40%. It also gave an inhibition at 0.001514 µM (MAP2K1 (MEK1); 1 h, log[inhibitor] (M) -8.82, ZLYTE, ATP 100) of 19%, an inhibition at 0.0004898 µM (MAP2K1 (MEK1); 1 h, log[inhibitor] (M) -9.31, ZLYTE, ATP 100) of 18% and an inhibition at 0.004571 µM (MAP2K1 (MEK1); 1 h, log[inhibitor] (M) -[…], ZLYTE, ATP 100) of 27%. The Apparent fold selectivity (MAP2K1 (MEK1); [3]) was 60 fold, the “Inhibition at 1 µM (%)” value (MAP2K1 (MEK1); MAP2K1 (MEK1), 1 µM, ZLYTE, ATP 100, listed as WEL028, 1 µM) was 108% and the inhibition at 1 µM (MAP2K1 (MEK1); read-out: Inhibition at 1 µM (%), MAP2K1 (MEK1), 1 µM, ZLYTE, ATP 100) was 113%. The inhibition at 1 µM (FRK (PTK5); [1]) was 7%, the “Inhibition at 1 µM (%)” value (FRK (PTK5)) was 11% and the “Inhibition at 1 µM (%)” value (FRK (PTK5); listed as WEL028, 1 µM) was 4%. The inhibition at 1 µM (CDC42 BPA (MRCKA); [1]) was -7%, the “Inhibition at 1 µM (%)” value (CDC42 BPA (MRCKA); CDC42 BPA (MRCKA), 1 µM, ZLYTE, ATP Km app) was -20% and the inhibition at 1 µM (ACVR1 (ALK2); [1]) was 2%. For the same molecule, the inhibition at 1 µM (ACVR1 (ALK2); read-out: Inhibition at 1 µM (%), ACVR1 (ALK2), 1 µM, LanthaScreen Binding) was 3%.

Reference: article PMC7316778 (Nature Communications, 2020)
